The source of these data is US4100152A, “Peptides” (Takeda Chemical Industries, Ltd., priority 1976, dated 1978).

Common to all, as to format: in vivo
In assay [1] the test system is male mice (ICR/JCL) with one caudate nucleus destroyed. The assay is described as follows: Dopamine activity-potentiating effect (apomorphine-induced turning, caudate nucleus destroyed, reserpine premedication). As to conditions: ratio of effect to that of the same dose of TRH (TRH = 1), compound given 30 minutes before 0.25 mg/kg apomorphine i.p., reserpine 2 mg/kg i.p. premedication. As to the method: (4) Dopamine activity-potentiating effect
Using groups of 10 male mice (ICR/JCL) with one of its caudate nuclei destroyed by suction the effects of compound (I) upon the number of turns and the percent incidence of head turning as caused by 0.25 mg/kg of apomorphine (I.P.), i.e., a dopamine-receptor stimulant, under the influence of premedication (18-22 hours) with 2 mg/kg of reserpine (i.p.) were examined.
Thus, compound (I) was given 30 minutes before the administration of apomorphine and the result was compared with that for the untreated (control group). This test was performed to ascertain the potentiating effect of the compound upon the central nervous system action of dopamine, the principle of the test being the same as that of the experiment performed by Everett et al. [Fed. Proc. 23, 198, (1964)] for testing the DOPA synergistic effect which involved the administration of Dl-DOPA.
(§1) The relative effects of compound (I) by the above 4 procedures were expressed in terms of the ratios of effect of the same dose of compound (I) as that of TRH with the effects of TRH being taken as unity.

Assay [2] has as its system TSH (thyroid stimulating hormone) release. The assay is described as follows: TSH-releasing activity (method of Schally et al.). Particulars: ratio of effect to that of the same dose of TRH (TRH = 1); rats. As to the method:
(1) TSH-releasing activity
Using rats, a test was performed in accordance with the method of Schally et al. [J. Biol. Chem. 244, 4077, (1969)].
as §1

Assay [3] has as its system mice (ICR/JCL, male, 4 weeks old). As to the kind of experiment: Anaesthesia antagonism (pentobarbital sodium, recovery of righting reflex). Particulars: ratio of effect to that of the same dose of TRH (TRH = 1), 55 mg/kg pentobarbital sodium i.p., compound i.v. after 10 minutes.
For assay [4] the test system is unchanged. The assay is described as follows: Activity-increasing action (spontaneous activity in activity wheel). Particulars: ratio of effect to that of the same dose of TRH (TRH = 1), cumulative wheel rotations during 3 hours after i.v. administration. As to the method: (3) Activity-increasing action
Using groups of 10 mice (ICR/JCL, male, 4 weeks old), each mouse was placed in an activity wheel and the activity-increasing action of the medication on the mouse was observed. The cumulative number of rotations caused by the spontaneous activity of the mice during a period of 3 hours following the intravenous administration of compound (I) was compared with the number of revolutions for the control group.
as §1

Turning to Oct.His.Pip.NH2 [Oct-His-Pip-NH2], in assay [1], the Dopamine-potentiating effect was 4.00. Further, in assay [2], the TSH-releasing effect came to 0.5. Moreover, the Anaesthesia antagonism in assay [3] turned out to be 1.57. Further, the Spontaneous activity-increasing effect in assay [4] came to 5.
In the same order, the values of `NC(=O)[C@@H]1CCCN1C(=O)[C@H](Cc1c[nH]cn1)NC(=O)[C@@H]1CCC(=O)N1` [TRH, L-pyroglutamyl-L-histidyl-L-prolinamide] are 1, 1, 1 and 1.
